Experiments:
Format in all cases: functional, cell-based
[1] = system: RPMI-8226; assay: Antiproliferative activity against human RPMI-8226 cells assessed as inhibition of cell proliferation incubated for 72 hrs by XTT assay; settings: RPMI-8226, 72 h
[2] = system: MM1.S; assay: Antiproliferative activity against human MM1.S cells assessed as inhibition of cell proliferation incubated for 72 hrs by XTT assay
[3] = Antiproliferative activity against human MM1.R cells assessed as inhibition of cell proliferation incubated for 72 hrs by XTT assay; settings: MM.1R

Row | IC50 [1] [µM] | IC50 [2] [nM] | SMILES | IC50 [3] [nM]
1 | 18.6 |  | CC(C)=CC[C@@]12O[C@@H]1C(O)c1c(O)ccc(O)c1C2=O (stereo partly drawn) | 
2 | 0.0056 | 3.2 | CC(C)C[C@H](NC(=O)[C@H](Cc1ccccc1)NC(=O)c1cnccn1)B(O)O [BORTEZOMIB] | 4.7
3 | 10.8 | 1100 | COC1=CC(=O)C=C(OC)C1=O [2,6-DIMETHOXYQUINONE] | 3000
4 | 12.9 |  | CC(C)=CCC1=C(Cl)C(=O)c2c(O)ccc(O)c2C1=O | 
5 | 9.5 | 4800 | CC(C)=CC[C@@]12O[C@@H]1C(=O)c1c(O)ccc(O[C@@H]3O[C@H](CO)[C@@H](O)[C@H](O)[C@H]3O)c1C2=O | 3600
6 | 0.6 | 700 | CC(C)=CC[C@@]12O[C@@H]1C(=O)c1c(O)ccc(O)c1C2=O | 900
7 | 27.5 |  | CC(C)=CC[C@@H]1C(=O)c2c(O)ccc(O)c2[C@@H]1O | 
8 | 9.6 | 14700 | CC(C)(O)/C=C\C(O)=C1C(=O)c2c(O)ccc(O)c2C1=O | 6100

From ChEMBL document CHEMBL5215011, “Isolation and Structure Elucidation of Compounds from Sesamum alatum and Their Antiproliferative Activity against Multiple Myeloma Cells” (J Nat Prod, 2022)
